Measurements taken from article PMC8074287, “Analgesic and Anticancer Activity of Benzoxazole Clubbed 2-Pyrrolidinones as Novel Inhibitors of Monoacylglycerol Lipase” (Molecules, 2021).
Entries after “also recorded” stand apart in the source; their conditions may differ.

Tests used:
[1] = system: formalin-induced nociception; assay: Formalin-induced analgesic (nociception) test; type: in vivo, Male Wistar rats
Description: The formalin-induced analgesic test is an extensively acknowledged animal nociception model. In order to evaluate both central and peripheral effects of the compound (20), formalin-induced nociception model was selected for analgesic activity. The formalin induced behavioral response comprises two typical phases, stage I and II. Stage I persists up to five minutes after formalin injection and is characterized by acute pain with vigorous licking and biting of the injected site. Stage I consists the action formalin on afferent C-fiber nociceptors. While Stage II starts 10–30 min after formalin injection and persists till 60 min, characterized by periodic licking and biting of the injected site. Stage II imitates the action of central sensitization of the spinal dorsal horn neurons.
Figure 5 Formalin-induced analgesic test; a dose of the test compound 20 (5, 10, 30, and 50 mg/kg, p.o, suspended in 0.5% CMC) was administered 4 h before formalin injection (50 µL, 2.5%). Reference drug, gabapentin (100 mg/kg, i.p, dissolved in 0.9% normal saline) was injected 30 min before formalin injection. Total paw licking and biting duration, Stage I (white bar, 0–5 min) and stage II (black bar, 10–30 min) was recorded as a measure of pain behavior. Data is represented as mean ± SEM from a group of 10 animals. * p < 0.05, ** p < 0.01, p > 0.05 (NS, nonsignificant) vs. control (vehicle). GBP: Gabapentin; D5, D10, D30, andD50 are the dose concentrations of test compound 20.
Male Wistar rats (180–200 g) were obtained with the permission of IAEC (proposal number 1048) from Jamia Hamdard, New Delhi, India. The results of test compound 20 and reference drug, Gabapentin (GBP), were statistically compared with the control group.

HCT-116 = assay: NCI60 single-dose SRB assay; type: cell-based, human; conditions: HCT-116, Colon Cancer, 10 μM
Procedure: (§1) Compounds 19 and 20 were supplied to National Cancer Institute (USA), for sulforhodamine B (SRB) assay and anticancer screening. Single-dose (10 µM) assay results for compounds 19 and 20 were provided as a mean of percent growth (% G) and growth inhibition (% GI) against 60 cell lines of nine types of cancers and are tabulated in Table 4. […] Both the compounds 19 and 20 were also found active on UO-31 renal cancer cell line with % GI of 21.18 and 29.95, respectively.
(§2) Compounds 19 and 20 were supplied to National Cancer Institute (Bethesda, Maryland, USA), for in vitro sulforhodamine B (SRB) assay, anticancer screening on 60 cell lines of cancers of leukemia, melanoma, and tumors of the kidney, brain, breast, lung, colon, ovary, and prostate, as per their standard protocol. One dose anticancer results (NCI, USA) of compounds 19 and 20 are provided in the Supplementary Materials.

SR = assay: NCI60 single-dose SRB assay; type: cell-based, human; conditions: Leukemia, 10 μM
Procedure: as §1, §2

UACC-257 = assay: NCI60 single-dose SRB assay; type: cell-based, human; conditions: UACC-257, Melanoma, 10 μM
Procedure: as §1, §2

SN12C = assay: NCI60 single-dose SRB assay; type: cell-based, human; conditions: Renal Cancer, 10 μM
Procedure: as §1, §2

A498 = assay: NCI60 single-dose SRB assay; type: cell-based, human; conditions: A498, Renal Cancer, 10 μM
Procedure: as §1, §2

SMILES | pain response in acute (Stage I) and late (Stage II) phases ([1]; 5, 10, 30, and 50 mg/kg p.o., 4 h prior to formalin injection) | reduction in pain response compared with positive control GBP ([1]; at 30 mg/kg p.o., GBP 100 mg/kg i.p.) | % G (HCT-116) [%] | % G (SR) [%] | % GI (SR) [%] | % G (UACC-257) [%] | % GI (UACC-257) [%] | % G (SN12C) [%] | % GI (SN12C) [%] | % G (A498) [%] | % GI (A498) [%] | % GI (HCT-116) [%]
NS(=O)(=O)c1ccc(N2CC(c3nc4ccccc4o3)CC2=O)cc1 (stereo not drawn) [Compound 20, 4-(4-(Benzo[d]oxazol-2-yl)-2-oxopyrrolidin-1-yl)benzenesulfonamide] | reduced the pain response in acute and late stages in a dose-dependent manner; also recorded: reduced the pain response significantly both in acute (Stage I) and late (Stage II) phases, in a dose-dependent manner; also recorded: reduced the pain response significantly both in acute (stage I) and late (stage II) phases in a dose-dependent manner | better potency than the positive control gabapentin (GBP) | 95.78 | 93.20 | 6.80 | 110.78 | −10.78 | 95.50 | 4.50 | 113.94 | −13.94 | 
O=C1CC(c2nc3ccccc3o2)CN1c1ccc([N+](=O)[O-])cc1 (stereo not drawn) [Compound 19, 4-(Benzo[d]oxazol-2-yl)-1-(4-nitrophenyl)pyrrolidin-2-one] |  |  | 102.14 | 88.92 | 11.08 | 106.92 | −6.92 | 97.21 | 2.79 | 113.46 | −13.46 | −2.14
